Source: US20260217668A1, “CRYSTALLINE FORMS OF A LPA1 ANTAGONIST” (Bristol-Myers Squibb Company, priority 2022, published 2026)

Experiment: Moisture sorption isotherms
Assay type: physicochemical
Conditions: moisture sorption at 25° C., 4 to 95% RH (FIG. 4)
Procedure: Moisture sorption isotherms were collected in a TA Instrument VTI-SA+ Vapor Sorption Analyzer using approximately 270 mg of sample in a 250 μL ceramic pan. The sample was dried at 30° C. until the loss rate of 0.005 wt %/min was obtained for 10 minutes. The sample was tested at 25° C. and 4, 5, 15, 25, 35, 45, 50, 65, 75, 85, and 95% RH. Equilibration at each RH was reached when the rate of 0.01 wt %/min for 35 minutes was achieved or a maximum of 600 minutes.

- hygroscopicity: non-hygroscopicity
SMILES: CCCN(C)C(=O)OCc1c(-c2ccc(O[C@H]3CCC[C@H](C(=O)O)C3)c(C)n2)nnn1C [Form A]
